Data as given in the NIST ThermoML archive (doi:10.1021/je3013342).

Tests used:
[1] = 101 kPa, Liquid, Vibrating tube method
[2] = xn = mol fraction of the nth substance listed; settings: 101 kPa, Liquid, Vibrating tube method

CCCCCCl [1-chloropentane]
[1]
Settings | mass density [kg/m3]
298.15 K | 877.09
308.15 K | 866.97
318.15 K | 856.73

CCCCCCl [1-chloropentane] + C[N+](=O)[O-]
mass density [kg/m3], [2]
Settings | x1 = 0.1043 | x1 = 0.1721 | x1 = 0.2575 | x1 = 0.3466 | x1 = 0.4525 | x1 = 0.5435 | x1 = 0.6864 | x1 = 0.8325 | x1 = 0.8859 | x1 = 1
298.15 K | 1075.06 | 1045.39 | 1014.58 | 987.6 | 960.73 | 941.21 | 916.34 | 895.75 | 889.18 | 877.09
308.15 K | 1062.09 | 1032.77 | 1002.33 | 975.7 | 949.19 | 929.96 | 905.49 | 885.27 | 878.82 | 866.97
318.15 K | 1048.99 | 1020.02 | 989.95 | 963.67 | 937.53 | 918.59 | 894.51 | 874.65 | 868.33 | 856.73

C[N+](=O)[O-] [nitromethane]
[1]
Settings | mass density
298.15 K | 1130.9 kg/m3 [middle of 5 runs]
308.15 K | 1117.28 kg/m3 [middle of 6 runs]
318.15 K | 1103.53 kg/m3 [middle of 6 runs]

C[N+](=O)[O-] [nitromethane] + CC(Cl)(Cl)Cl
[2], x2 = 0
Settings | mass density [kg/m3]
298.15 K | 1130.91
308.15 K | 1117.29
318.15 K | 1103.55

C[N+](=O)[O-] [nitromethane] + CCCCCCl
[2], x2 = 0
Settings | mass density [kg/m3]
298.15 K | 1130.86
308.15 K | 1117.23
318.15 K | 1103.48

C[N+](=O)[O-] [nitromethane] + CCCCCl
mass density [kg/m3], [2]
Settings | x2 = 0 | x2 = 0.1107 | x2 = 0.2174 | x2 = 0.3236 | x2 = 0.3932 | x2 = 0.4856 | x2 = 0.5569 | x2 = 0.6626 | x2 = 0.7722 | x2 = 0.8646
298.15 K | 1130.76 | 1080.18 | 1040.11 | 1007.02 | 987.92 | 965.38 | 949.92 | 929.96 | 911.75 | 898.07
308.15 K | 1117.14 | 1067 | 1027.27 | 994.47 | 975.54 | 953.21 | 937.92 | 918.09 | 900.15 | 886.65
318.15 K | 1103.39 | 1053.7 | 1014.29 | 982.09 | 963.01 | 940.87 | 925.76 | 906.2 | 888.4 | 875.07

C[N+](=O)[O-] [nitromethane] + ClC(Cl)C(Cl)Cl
[2], x2 = 0
Settings | mass density [kg/m3]
298.15 K | 1130.86
308.15 K | 1117.24
318.15 K | 1103.5

C[N+](=O)[O-] [nitromethane] + ClC(Cl)Cl
mass density [kg/m3], [2]
Settings | x2 = 0 | x2 = 0.1197 | x2 = 0.1772 | x2 = 0.3007 | x2 = 0.4009 | x2 = 0.5 | x2 = 0.5978 | x2 = 0.7194 | x2 = 0.8607 | x2 = 0.9562
298.15 K | 1130.86 | 1189.05 | 1214.82 | 1265.96 | 1303.55 | 1337.74 | 1368.78 | 1404.19 | 1441.14 | 1463.58
308.15 K | 1117.24 | 1174.6 | 1200 | 1250.36 | 1287.37 | 1321 | 1351.55 | 1386.34 | 1422.65 | 1444.71
318.15 K | 1103.5 | 1160.01 | 1185.02 | 1234.59 | 1271 | 1304.11 | 1334.09 | 1368.25 | 1403.89 | 1425.56

C[N+](=O)[O-] [nitromethane] + ClCCCCCl
[2], x2 = 0
Settings | mass density [kg/m3]
298.15 K | 1130.95
308.15 K | 1117.32
318.15 K | 1103.57

C[N+](=O)[O-] [nitromethane] + ClCCCCl
[2], x2 = 0
Settings | mass density [kg/m3]
298.15 K | 1130.9
308.15 K | 1117.28
318.15 K | 1103.53

C[N+](=O)[O-] [nitromethane] + ClCCCl
mass density [kg/m3], [2]
Settings | x2 = 0 | x2 = 0.1132 | x2 = 0.2235 | x2 = 0.3249 | x2 = 0.4672 | x2 = 0.5586 | x2 = 0.6264 | x2 = 0.7349 | x2 = 0.857 | x2 = 0.923
298.15 K | 1130.86 | 1147.31 | 1162.54 | 1175.69 | 1192.94 | 1203.25 | 1210.49 | 1221.8 | 1233.37 | 1239.2
308.15 K | 1117.24 | 1133.59 | 1148.71 | 1161.77 | 1178.89 | 1189.11 | 1196.29 | 1207.48 | 1218.91 | 1224.67
318.15 K | 1103.5 | 1119.73 | 1134.75 | 1147.71 | 1164.69 | 1174.81 | 1181.96 | 1192.99 | 1204.28 | 1209.97

ClC(Cl)Cl [trichloromethane]
[1]
Settings | mass density [kg/m3]
298.15 K | 1473.42
308.15 K | 1454.33
318.15 K | 1434.98

ClC(Cl)Cl [trichloromethane] + C[N+](=O)[O-]
[2], x1 = 1
Settings | mass density [kg/m3]
298.15 K | 1473.42
308.15 K | 1454.33
318.15 K | 1434.98
